This note sets out measurements from ChEMBL document CHEMBL1201862, “PubChem BioAssay data set” (2004).

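Method: 48-hour compound exposure of cells in 96-well plates, five concentrations, linear interpolation of endpoints. The concentration for 50% growth inhibition is given as GI50.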 Activity calls are given as the source filed them. Rule as the data show it: active = GI50 up to about 1.1 µM and inactive = higher. Residues, ends and D or L forms follow the SMILES beside them. *: point of attachment. Cbz = O=C(OCc1ccccc1)*

Among the test systems are HOP-62; CCRF-CEM; OVCAR-8; SF-268; MDA-MB-435; UACC-257; UO-31; MOLT-4; SK-MEL-5; HCC 2998; Hs-578T; SF-295; MCF7; SNB-75; 786-0; OVCAR-5; SN12C; HCT-116; HCT-15; A498.
What all share (assay): NCI anticancer screen, dose series, 48 h

As for `O=C1CCCC/C1=C\c1ccc(Br)cc1`, the GI50 in the assay with HOP-62 is 20.7 µM (inactive); with CCRF-CEM it was 12.6 µM (inactive); in the assay on OVCAR-8, 15.7 µM (inactive); in the assay with SF-268 it was 18.5 µM (inactive); in the assay on MDA-MB-435 it was 15.8 µM (inactive); with UACC-257, 26.8 µM (inactive). The GI50 was 16.1 µM (inactive) in the assay with UO-31; 2.14 µM (inactive) in the assay with MOLT-4; 22.7 µM (inactive) with SK-MEL-5; 23.2 µM (inactive) in the assay with HCC 2998; 24.5 µM (inactive) in the assay with Hs-578T; 21.1 µM (inactive) in the assay on SF-295. Further, the GI50 was 2.71 µM (inactive) in the assay on MCF7; 16 µM (inactive) with SNB-75; 16.6 µM (inactive) in the assay on 786-0; > 10 µM (inactive) with OVCAR-5; 17.6 µM (inactive) in the assay with SN12C; 17.3 µM (inactive) in the assay with HCT-116.

Turning to `CC(NC(=O)C(NC(=O)OCc1ccccc1)C(C)C)C(=O)NCC(=O)O` (stereo not drawn) (Cbz-Val-Ala-Gly-OH; configuration not given here), the GI50 in the assay on HOP-62, in the assay with OVCAR-8, in the assay with SF-268, with MDA-MB-435, in the assay on UACC-257 and in the assay on UO-31 was > 100 µM (inactive) each time. The GI50 in the assay with MOLT-4 is > 100 µM (inactive); in the assay with SK-MEL-5, > 100 µM (inactive); in the assay with HCT-15, more than 100 µM; with HCC 2998 it was > 100 µM (inactive); in the assay on Hs-578T, > 100 µM (inactive); in the assay on SF-295 it was > 100 µM (inactive). The GI50 in the assay with MCF7, in the assay with 786-0, in the assay on OVCAR-5, with SN12C and with HCT-116 was > 100 µM (inactive) each time.

`CC(Cc1ccccc1)N(C)Cc1nc(C2CCC([N+](=O)[O-])O2)no1` (stereo unspecified): the GI50 was 7.43 µM (inactive) in the assay with HOP-62; 12.2 µM (inactive) in the assay on CCRF-CEM; 12.7 µM (inactive) with OVCAR-8; 28.1 µM (inactive) in the assay on SF-268; 6.82 µM (inactive) in the assay with MDA-MB-435; 7.31 µM (inactive) in the assay on UACC-257. The GI50 in the assay on UO-31 was 7.29 µM (inactive); in the assay on MOLT-4 it was 19.5 µM (inactive); with SK-MEL-5 it was 11.5 µM (inactive); with HCT-15 it was 2.17 µM; with HCC 2998 it was 4.17 µM (inactive); with Hs-578T, 2.46 µM (inactive). In addition, the GI50 is 8.79 µM (inactive) in the assay on SF-295; 4.06 µM (inactive) in the assay on MCF7; 10.3 µM (inactive) in the assay with SNB-75; 11.9 µM (inactive) in the assay with 786-0; 15.6 µM (inactive) with OVCAR-5; 2.51 µM (inactive) with SN12C. In addition, the GI50 in the assay on HCT-116 is 7.29 µM (inactive).

For `COc1ccc(/C=C2/CCS(=O)(=O)c3ccc(C)cc3C2=O)cc1OC`, the GI50 in the assay with HOP-62 is 28.9 µM (inactive); with CCRF-CEM it was 8.75 µM (inactive); in the assay on OVCAR-8 it was 12.3 µM (inactive); with SF-268, 20.5 µM (inactive); in the assay on MDA-MB-435, 12.5 µM (inactive); in the assay on UACC-257, 11.9 µM (inactive). Besides, the GI50 is 7.48 µM (inactive) in the assay with UO-31; 12.1 µM (inactive) in the assay with MOLT-4; 7.18 µM in the assay with HCT-15; 6.47 µM (inactive) in the assay with HCC 2998; 11.5 µM (inactive) in the assay on Hs-578T; 14.7 µM (inactive) in the assay on SF-295. Besides, the GI50 with MCF7 was 8.38 µM (inactive); in the assay on SNB-75, 12 µM (inactive); in the assay on 786-0, 11.4 µM (inactive); in the assay on OVCAR-5 it was 27.5 µM (inactive); in the assay with SN12C, 13.2 µM (inactive); in the assay with HCT-116 it was 10.2 µM (inactive).

`COc1ncc(C=C(C#N)C#N)c(OC)n1`: the GI50 with HOP-62 is 83.6 µM (inactive); in the assay with CCRF-CEM, 7.48 µM (inactive); in the assay on OVCAR-8, 24.2 µM (inactive); in the assay with SF-268, 61.8 µM (inactive); in the assay on MDA-MB-435 it was 26 µM (inactive); with UACC-257 it was 22.1 µM (inactive). Further, the GI50 is 21.1 µM (inactive) with UO-31; 33.3 µM (inactive) in the assay with MOLT-4; 29.3 µM (inactive) in the assay with SK-MEL-5; 29.9 µM in the assay with HCT-15; > 100 µM (inactive) in the assay with A498; 60.7 µM (inactive) with Hs-578T. Also, the GI50 in the assay with SF-295 is 85.5 µM (inactive); in the assay on MCF7, 36.7 µM (inactive); in the assay with SNB-75, > 100 µM (inactive); with 786-0 it was 19.3 µM (inactive); in the assay on OVCAR-5 it was 86.7 µM (inactive); in the assay with SN12C, 26.8 µM (inactive). Further, the GI50 with HCT-116 is 26.1 µM (inactive).

`C1=C2C3=[N+](CCCC3)CC2Cc2sccc21` (stereo unspecified): the GI50 in the assay on HOP-62 was 81.7 µM (inactive); with CCRF-CEM, > 100 µM (inactive); with OVCAR-8, > 100 µM (inactive); with SF-268, > 100 µM (inactive); in the assay with MDA-MB-435, > 100 µM (inactive); in the assay with UACC-257 it was 33.3 µM (inactive). Further, the GI50 in the assay on UO-31 is > 100 µM (inactive); in the assay on MOLT-4, > 100 µM (inactive); in the assay with SK-MEL-5, 57.7 µM (inactive); with HCT-15 it was more than 100 µM; with A498, 47.6 µM (inactive); with Hs-578T, > 100 µM (inactive). For the same molecule, the GI50 was 66.5 µM (inactive) in the assay with SF-295; > 100 µM (inactive) in the assay with MCF7; > 100 µM (inactive) in the assay with SNB-75; > 100 µM (inactive) with 786-0; > 100 µM (inactive) with OVCAR-5; 92.7 µM (inactive) with SN12C. Further, the GI50 in the assay on HCT-116 was > 100 µM (inactive).

As for `COC(=O)c1cc(C)n2c1CS[C@@H]2c1ccccc1`, the GI50 was 37.8 µM (inactive) in the assay with HOP-62; 41.4 µM (inactive) in the assay on CCRF-CEM; 44.4 µM (inactive) with OVCAR-8; 50.6 µM (inactive) in the assay on SF-268; 19.1 µM (inactive) in the assay on MDA-MB-435; 47.9 µM (inactive) in the assay with UACC-257. For the same molecule, the GI50 with UO-31 is 28.4 µM (inactive); in the assay with MOLT-4, 22.5 µM (inactive); in the assay on SK-MEL-5 it was 19.8 µM (inactive); in the assay on HCT-15, 27.5 µM; in the assay on A498, 27.4 µM (inactive); with Hs-578T, 45.1 µM (inactive). Also, the GI50 with SF-295 is 30.7 µM (inactive); with MCF7, 34 µM (inactive); in the assay on SNB-75, 16.5 µM (inactive); with 786-0, 50.6 µM (inactive); in the assay on OVCAR-5, > 100 µM (inactive); in the assay with SN12C, 37.2 µM (inactive). Moreover, the GI50 in the assay on HCT-116 was 33.7 µM (inactive).

For `N=C(N)c1ccc(/N=N/c2c(O)ccc3cc(O)ccc23)cc1`, the GI50 in the assay with HOP-62, in the assay on CCRF-CEM, in the assay on OVCAR-8, in the assay on SF-268, in the assay with MDA-MB-435 and in the assay on UACC-257 was > 100 µM (inactive) each time. The GI50 is > 100 µM (inactive) in the assay on UO-31; > 100 µM (inactive) in the assay on MOLT-4; > 100 µM (inactive) in the assay on SK-MEL-5; more than 100 µM with HCT-15; > 100 µM (inactive) with HCC 2998; > 100 µM (inactive) in the assay on Hs-578T. Moreover, the GI50 in the assay on SF-295, with MCF7, in the assay on 786-0, in the assay with OVCAR-5 and with HCT-116 was > 100 µM (inactive) in each case.

Consider `CNC(=S)Nc1ccc(OC)c2ccccc12`, for which the GI50 with HOP-62, in the assay with CCRF-CEM, in the assay on OVCAR-8, in the assay with SF-268, with MDA-MB-435 and in the assay on UACC-257 was > 10 µM (inactive) each time. Besides, the GI50 in the assay on MOLT-4 is > 10 µM (inactive); with SK-MEL-5, > 10 µM (inactive); with HCT-15, more than 10 µM; in the assay on HCC 2998, > 10 µM (inactive); with Hs-578T, > 10 µM (inactive); with SF-295, 2.04 µM (inactive). Also, the GI50 in the assay on MCF7 is > 10 µM (inactive); in the assay with SNB-75 it was 4.43 µM (inactive); in the assay with 786-0, > 10 µM (inactive); with OVCAR-5, > 10 µM (inactive); in the assay with SN12C, > 10 µM (inactive); in the assay on HCT-116, > 10 µM (inactive).

Turning to `COC(=O)[C@H](Cc1c[nH]c2ccccc12)NC(=O)OCC1OC(n2cc(C)c(=O)[nH]c2=O)CC1N=[N+]=[N-]` (stereo partly specified), the GI50 in the assay with HOP-62 is > 100 µM (inactive); in the assay with CCRF-CEM, 93.3 µM (inactive); with OVCAR-8, > 100 µM (inactive); with SF-268, > 100 µM (inactive); in the assay on MDA-MB-435 it was > 100 µM (inactive); with UACC-257, 62.5 µM (inactive). Moreover, the GI50 is > 100 µM (inactive) in the assay with UO-31; 33.6 µM (inactive) in the assay on MOLT-4; 31.8 µM (inactive) in the assay with SK-MEL-5; more than 100 µM in the assay with HCT-15; > 100 µM (inactive) with HCC 2998; 46.3 µM (inactive) in the assay on Hs-578T. The GI50 with SF-295 was > 100 µM (inactive); with MCF7, > 100 µM (inactive); in the assay on SNB-75 it was 84.5 µM (inactive); in the assay on 786-0 it was > 100 µM (inactive); in the assay on OVCAR-5, > 100 µM (inactive); in the assay with SN12C it was > 100 µM (inactive). Also, the GI50 in the assay on HCT-116 was > 100 µM (inactive).

Turning to `Cc1nn(C(=O)c2ccc(Cl)cc2)c2c1C(c1cccc([N+](=O)[O-])c1)SC(=N)N2` (stereo unspecified), the GI50 in the assay on HOP-62, with CCRF-CEM, in the assay on OVCAR-8, with SF-268, in the assay with MDA-MB-435 and in the assay on UACC-257 was > 10 µM (inactive) throughout. The GI50 with MOLT-4 is > 10 µM (inactive); in the assay with SK-MEL-5, > 10 µM (inactive); in the assay with HCT-15, 2.56 µM; in the assay on HCC 2998, > 10 µM (inactive); in the assay on Hs-578T, > 10 µM (inactive); with SF-295 it was > 10 µM (inactive). Further, the GI50 in the assay on MCF7, in the assay with SNB-75, in the assay with 786-0, with OVCAR-5, in the assay on SN12C and with HCT-116 was > 10 µM (inactive) each time.
